Test results from PubChem BioAssay (NCI).
“And” between values parts separate entries of the source, which are not always exact repeats. Equal entries are not always repeated.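 Briefly, cells in 96-well plates were exposed to five compound concentrations for 48 h, and endpoints were estimated by linear interpolation. Here, GI50 denotes the concentration required for 50% inhibition of growth. TGI: total growth inhibition.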

What was measured:
Experiment in all cases: DTP human tumour cell line panel, 48 h
786-0 renal = system: 786-0 renal
HL-60(TB) leukemia = system: HL-60(TB) leukemia
SK-MEL-2 melanoma = system: SK-MEL-2 melanoma
SR leukemia = system: SR leukemia
DU-145 prostate = system: DU-145 prostate
KM12 colon = system: KM12 colon
SNB-75 CNS = system: SNB-75 CNS
UACC-257 melanoma = system: UACC-257 melanoma
HT29 colon = system: HT29 colon
UACC-62 melanoma = system: UACC-62 melanoma

SMILES: O=C(O)C1C2C=CC(O2)C1C(=O)NCc1ccncc1 (stereo not given)
- TGI (786-0 renal): > 100 µM
- TGI (HL-60(TB) leukemia): > 100 µM
- TGI (SK-MEL-2 melanoma): > 100 µM
- TGI (SR leukemia): > 100 µM
- TGI (DU-145 prostate): > 100 µM
- TGI (KM12 colon): > 100 µM
- TGI (SNB-75 CNS): > 100 µM
- TGI (UACC-257 melanoma): > 100 µM
- TGI (HT29 colon): > 100 µM
- TGI (UACC-62 melanoma): > 100 µM

SMILES: O=c1[nH][nH]c(=O)c2c(O)c(-c3ccccc3)ncc12
- GI50 (786-0 renal): 19.4 µM and 26.7 µM
- TGI (786-0 renal): 42.1 µM and 90.4 µM
- GI50 (HL-60(TB) leukemia): 74.4 µM and 174 µM
- TGI (HL-60(TB) leukemia): 553 µM
- GI50 (SK-MEL-2 melanoma): 26 µM and 79.1 µM
- TGI (SK-MEL-2 melanoma): 67.3 µM and 373 µM
- GI50 (SR leukemia): 39.6 µM and 118 µM
- TGI (SR leukemia): 554 µM
- GI50 (DU-145 prostate): 58.5 µM and 144 µM
- TGI (DU-145 prostate): > 1000 µM
- GI50 (KM12 colon): 34.2 µM and 53.1 µM
- TGI (KM12 colon): 482 µM
- GI50 (SNB-75 CNS): 35.4 µM and 37.6 µM
- TGI (SNB-75 CNS): 353 µM
- GI50 (UACC-257 melanoma): 46.2 µM and 272 µM
- TGI (UACC-257 melanoma): 871 µM
- GI50 (HT29 colon): 38.4 µM and 177 µM
- TGI (HT29 colon): 674 µM
- GI50 (UACC-62 melanoma): 34.2 µM and 73.5 µM
- TGI (UACC-62 melanoma): 420 µM

SMILES: COC(=O)c1cc2c([nH]c3ccccc32)c(-c2nc3ccccc3cc2CO)n1
- GI50 (786-0 renal): 6.2 µM
- TGI (786-0 renal): > 100 µM
- GI50 (HL-60(TB) leukemia): 24.9 µM
- TGI (HL-60(TB) leukemia): 50.2 µM
- GI50 (SK-MEL-2 melanoma): > 100 µM
- TGI (SK-MEL-2 melanoma): > 100 µM
- GI50 (SR leukemia): > 100 µM
- TGI (SR leukemia): > 100 µM
- GI50 (DU-145 prostate): > 100 µM
- TGI (DU-145 prostate): > 100 µM
- GI50 (KM12 colon): > 100 µM
- TGI (KM12 colon): > 100 µM
- GI50 (SNB-75 CNS): 40.1 µM
- TGI (SNB-75 CNS): > 100 µM
- GI50 (UACC-257 melanoma): > 100 µM
- TGI (UACC-257 melanoma): > 100 µM
- GI50 (HT29 colon): > 100 µM
- TGI (HT29 colon): > 100 µM
- GI50 (UACC-62 melanoma): > 100 µM
- TGI (UACC-62 melanoma): > 100 µM

SMILES: CN(CCCCCCCCNc1ccnc2ccccc12)Cc1ccc(-c2ccc(-c3ccc(C#N)cc3)s2)cc1
- GI50 (786-0 renal): 1.4 µM
- TGI (786-0 renal): 3.25 µM
- GI50 (HL-60(TB) leukemia): 1.15 µM
- TGI (HL-60(TB) leukemia): 2.93 µM
- GI50 (SK-MEL-2 melanoma): 1.85 µM
- TGI (SK-MEL-2 melanoma): 3.83 µM
- GI50 (SR leukemia): 0.083 µM
- TGI (SR leukemia): 0.35 µM
- GI50 (DU-145 prostate): 1.04 µM
- TGI (DU-145 prostate): 2.38 µM
- GI50 (KM12 colon): 0.667 µM
- TGI (KM12 colon): 2.17 µM
- GI50 (SNB-75 CNS): 1.35 µM
- TGI (SNB-75 CNS): 2.68 µM
- GI50 (UACC-257 melanoma): 0.482 µM
- TGI (UACC-257 melanoma): 1.6 µM
- GI50 (HT29 colon): 0.318 µM
- TGI (HT29 colon): 1.77 µM
- GI50 (UACC-62 melanoma): 1.53 µM
- TGI (UACC-62 melanoma): 2.92 µM

SMILES: COc1ccccc1/C=C1\CCC(CN2CCOCC2)C1=O (stereo not given)
- TGI (786-0 renal): 8.53 µM
- TGI (HL-60(TB) leukemia): 6.42 µM
- TGI (SK-MEL-2 melanoma): 32.2 µM
- TGI (SR leukemia): 5.7 µM
- TGI (DU-145 prostate): 31.4 µM
- TGI (KM12 colon): 14.5 µM
- TGI (SNB-75 CNS): 46.3 µM
- TGI (UACC-257 melanoma): 23.9 µM
- TGI (HT29 colon): 56.6 µM
- TGI (UACC-62 melanoma): 30.3 µM

SMILES: O=C1c2c(c3c4ccccc4n(CCCCCCN4CCOCC4)c3c3[nH]c4ccccc4c23)C(=O)N1O
- GI50 (786-0 renal): 1.96 µM
- TGI (786-0 renal): 5.43 µM
- GI50 (HL-60(TB) leukemia): 2.49 µM
- TGI (HL-60(TB) leukemia): 8.22 µM
- GI50 (SK-MEL-2 melanoma): 19.5 µM
- TGI (SK-MEL-2 melanoma): 46 µM
- GI50 (SR leukemia): 0.291 µM
- TGI (SR leukemia): 1.08 µM
- GI50 (DU-145 prostate): 11.5 µM
- TGI (DU-145 prostate): > 100 µM
- GI50 (KM12 colon): 7.01 µM
- TGI (KM12 colon): 57.7 µM
- GI50 (SNB-75 CNS): 1.36 µM
- TGI (SNB-75 CNS): 7.57 µM
- GI50 (UACC-257 melanoma): 24.5 µM
- TGI (UACC-257 melanoma): 56.6 µM
- GI50 (HT29 colon): 3.39 µM
- TGI (HT29 colon): 18.1 µM
- GI50 (UACC-62 melanoma): 1.91 µM
- TGI (UACC-62 melanoma): 4.62 µM

SMILES: CCc1nc(N)nc(N)c1-c1ccc(N(C)Cc2ccccc2)c([N+](=O)[O-])c1
- TGI (786-0 renal): 30.3 µM
- TGI (HL-60(TB) leukemia): 5.88 µM
- TGI (SK-MEL-2 melanoma): 20 µM
- TGI (SR leukemia): 4.16 µM
- TGI (DU-145 prostate): 31.7 µM
- TGI (KM12 colon): 16.3 µM
- TGI (SNB-75 CNS): 19.5 µM
- TGI (UACC-257 melanoma): 14.2 µM
- TGI (HT29 colon): 14.6 µM
- TGI (UACC-62 melanoma): 13 µM
